According to publication PMC7179119, “A New Positron Emission Tomography Probe for Orexin Receptors Neuroimaging” (Molecules, 2020):
Read-outs that look alike come from different tables or passages of the source.

Experiments:
Assay in all cases: PDSP off-target radioligand binding assay
Sigma 2 = conditions: 10 µM
Protocol: (§1) Table S1. Off binding data of CW24.
(§2) The off-target binding assays were performed at PDSP with their standard protocol (https://pdspdb.unc.edu/pdspWeb/content/UNC-CH%20Protocol%20Book.pdf). In radioligand binding assays, CW24 was tested at a single concentration (10 µM) and in quadruplicate in 96-well plates. The binding assays were carried out in a final of volume of 125 µl per well in appropriate binding buffers. The hot ligand concentration is usually at a concentration close to the Kd (unless otherwise indicated). Total binding and nonspecific binding are determined in the absence and presence of 10 µM of the appropriate reference compound, respectively. In brief, plates are usually incubated at room temperature and in the dark for 90 mins. Reactions are stopped by vacuum filtration onto 0.3% polyethyleneimine (PEI) soaked 96-well filter mats using a 96-well Filtermate harvester, followed by three washes with cold wash buffers (for details, see Tables 2 to 24). Scintillation cocktail is then melted onto the microwave-dried filters on a hot plate and radioactivity is counted in a Microbeta counter.
(§3) Receptor % Inhibition 1 % Inhibition 2 % Inhibition 3 % Inhibition 4 Mean±SD %

GABAA = conditions: 10 µM
Protocol: as §1, §2, §3

5-HT2B = molecular target: T1, 5-HT2B (Homo sapiens, UniProt P41595)
T1 construct: NIMH PDSP
Protocol: as §1, §2, §3

5-HT1A = molecular target: T2, 5-HT1A (Homo sapiens, UniProt P08908)
T2 construct: NIMH PDSP
T2 sequence (P08908 1-422): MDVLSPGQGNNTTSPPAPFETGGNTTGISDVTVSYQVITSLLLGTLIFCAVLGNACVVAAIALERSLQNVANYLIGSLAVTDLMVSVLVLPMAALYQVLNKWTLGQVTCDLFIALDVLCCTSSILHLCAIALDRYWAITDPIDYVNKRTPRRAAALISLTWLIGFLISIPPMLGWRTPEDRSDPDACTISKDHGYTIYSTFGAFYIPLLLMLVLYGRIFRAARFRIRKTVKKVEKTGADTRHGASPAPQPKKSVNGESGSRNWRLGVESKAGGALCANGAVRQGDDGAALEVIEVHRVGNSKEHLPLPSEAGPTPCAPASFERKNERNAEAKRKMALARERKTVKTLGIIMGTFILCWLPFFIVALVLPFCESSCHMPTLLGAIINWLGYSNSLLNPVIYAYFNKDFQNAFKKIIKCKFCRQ
Protocol: as §1, §2, §3

Alpha1D = molecular target: T3, Alpha1D (Homo sapiens, UniProt P25100)
T3 construct: NIMH PDSP
T3 sequence (P25100 1-572): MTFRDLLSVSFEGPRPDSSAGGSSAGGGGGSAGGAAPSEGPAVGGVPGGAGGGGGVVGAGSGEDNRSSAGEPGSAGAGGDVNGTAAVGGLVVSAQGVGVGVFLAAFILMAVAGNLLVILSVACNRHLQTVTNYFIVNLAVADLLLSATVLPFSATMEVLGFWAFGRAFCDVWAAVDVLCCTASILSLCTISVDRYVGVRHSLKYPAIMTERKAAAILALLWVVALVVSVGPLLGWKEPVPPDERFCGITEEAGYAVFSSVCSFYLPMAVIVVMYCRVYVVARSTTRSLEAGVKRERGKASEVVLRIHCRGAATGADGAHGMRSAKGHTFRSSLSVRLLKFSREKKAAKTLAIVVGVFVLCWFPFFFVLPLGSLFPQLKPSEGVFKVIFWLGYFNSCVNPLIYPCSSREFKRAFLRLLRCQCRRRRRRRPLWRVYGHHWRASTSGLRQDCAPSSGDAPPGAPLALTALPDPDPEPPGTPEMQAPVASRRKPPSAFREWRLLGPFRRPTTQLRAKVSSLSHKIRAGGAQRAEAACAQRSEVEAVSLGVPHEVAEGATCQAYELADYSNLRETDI
Protocol: as §1, §2, §3

D5 = D5 (Homo sapiens, UniProt P21918)
Protocol: as §1, §2, §3

DAT = DAT (Homo sapiens, UniProt Q01959)
Protocol: as §1, §2, §3

D4 = molecular target: T4, D4 (Homo sapiens, UniProt P21917)
T4 construct: NIMH PDSP
T4 sequence (P21917 1-419): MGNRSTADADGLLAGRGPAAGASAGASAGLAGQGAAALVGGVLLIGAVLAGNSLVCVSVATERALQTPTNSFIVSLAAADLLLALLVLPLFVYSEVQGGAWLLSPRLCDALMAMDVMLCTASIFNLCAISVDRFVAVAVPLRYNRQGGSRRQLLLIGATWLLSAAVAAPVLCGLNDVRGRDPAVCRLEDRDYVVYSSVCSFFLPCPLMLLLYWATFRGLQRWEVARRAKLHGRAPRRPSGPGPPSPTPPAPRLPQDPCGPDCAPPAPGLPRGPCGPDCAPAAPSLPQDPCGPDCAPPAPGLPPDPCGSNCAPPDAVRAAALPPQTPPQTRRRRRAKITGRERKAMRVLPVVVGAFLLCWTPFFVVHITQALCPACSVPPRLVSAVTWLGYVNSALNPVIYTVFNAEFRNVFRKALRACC
Protocol: as §1, §2, §3

D3 = molecular target: T5, D3 (Homo sapiens, UniProt P35462)
T5 construct: NIMH PDSP
Protocol: as §1, §2, §3

[1] = quadruplicate, read-out: Mean±SD % inhibition
[2] = replicate 1, read-out: % Inhibition 1
[3] = replicate 2, read-out: % Inhibition 2
[4] = replicate 3, read-out: % Inhibition 3
[5] = replicate 4, read-out: % Inhibition 4

Chain of DAT (Q01959 whole entry, species assumed): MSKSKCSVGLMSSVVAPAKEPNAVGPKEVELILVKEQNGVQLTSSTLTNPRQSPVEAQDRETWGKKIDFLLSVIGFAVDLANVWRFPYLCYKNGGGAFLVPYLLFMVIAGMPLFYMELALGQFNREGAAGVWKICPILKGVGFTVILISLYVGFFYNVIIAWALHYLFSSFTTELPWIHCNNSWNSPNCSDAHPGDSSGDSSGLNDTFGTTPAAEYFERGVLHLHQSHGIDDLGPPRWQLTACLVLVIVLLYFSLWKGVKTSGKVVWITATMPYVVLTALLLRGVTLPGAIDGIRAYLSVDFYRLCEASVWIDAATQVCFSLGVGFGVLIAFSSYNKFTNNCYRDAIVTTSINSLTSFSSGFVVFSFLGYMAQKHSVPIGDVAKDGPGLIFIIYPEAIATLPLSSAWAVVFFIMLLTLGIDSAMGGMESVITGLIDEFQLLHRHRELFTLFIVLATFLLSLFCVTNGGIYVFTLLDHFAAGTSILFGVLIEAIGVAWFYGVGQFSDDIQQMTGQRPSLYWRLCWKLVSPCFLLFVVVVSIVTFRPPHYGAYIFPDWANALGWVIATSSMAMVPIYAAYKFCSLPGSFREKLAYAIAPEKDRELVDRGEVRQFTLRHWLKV
T1 sequence (P41595 whole entry, species assumed): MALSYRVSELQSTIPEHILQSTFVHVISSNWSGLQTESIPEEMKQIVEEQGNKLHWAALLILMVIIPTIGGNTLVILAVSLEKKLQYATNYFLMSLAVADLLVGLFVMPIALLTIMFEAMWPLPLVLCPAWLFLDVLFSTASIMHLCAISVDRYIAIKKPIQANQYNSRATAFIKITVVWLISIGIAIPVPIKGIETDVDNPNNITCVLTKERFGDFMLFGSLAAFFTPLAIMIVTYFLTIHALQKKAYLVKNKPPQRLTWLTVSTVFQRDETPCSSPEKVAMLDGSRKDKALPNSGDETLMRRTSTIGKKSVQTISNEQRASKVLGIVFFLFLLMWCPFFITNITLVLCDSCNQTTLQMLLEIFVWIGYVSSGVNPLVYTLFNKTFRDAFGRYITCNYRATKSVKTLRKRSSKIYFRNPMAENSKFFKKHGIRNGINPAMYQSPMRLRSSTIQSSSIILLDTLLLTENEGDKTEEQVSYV
Chain of D5 (P21918 whole entry): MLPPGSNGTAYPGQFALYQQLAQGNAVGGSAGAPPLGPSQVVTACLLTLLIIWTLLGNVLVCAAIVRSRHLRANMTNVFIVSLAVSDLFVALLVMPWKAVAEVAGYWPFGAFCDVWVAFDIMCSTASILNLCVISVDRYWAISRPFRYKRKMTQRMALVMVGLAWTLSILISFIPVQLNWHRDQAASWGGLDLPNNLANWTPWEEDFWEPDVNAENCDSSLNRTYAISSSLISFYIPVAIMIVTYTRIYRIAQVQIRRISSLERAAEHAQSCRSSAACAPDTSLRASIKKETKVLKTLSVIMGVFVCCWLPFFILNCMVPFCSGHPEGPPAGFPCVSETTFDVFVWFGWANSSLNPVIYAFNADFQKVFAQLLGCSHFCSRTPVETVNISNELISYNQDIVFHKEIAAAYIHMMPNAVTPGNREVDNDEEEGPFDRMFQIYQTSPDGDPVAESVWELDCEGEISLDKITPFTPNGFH
T5 sequence (P35462 whole entry): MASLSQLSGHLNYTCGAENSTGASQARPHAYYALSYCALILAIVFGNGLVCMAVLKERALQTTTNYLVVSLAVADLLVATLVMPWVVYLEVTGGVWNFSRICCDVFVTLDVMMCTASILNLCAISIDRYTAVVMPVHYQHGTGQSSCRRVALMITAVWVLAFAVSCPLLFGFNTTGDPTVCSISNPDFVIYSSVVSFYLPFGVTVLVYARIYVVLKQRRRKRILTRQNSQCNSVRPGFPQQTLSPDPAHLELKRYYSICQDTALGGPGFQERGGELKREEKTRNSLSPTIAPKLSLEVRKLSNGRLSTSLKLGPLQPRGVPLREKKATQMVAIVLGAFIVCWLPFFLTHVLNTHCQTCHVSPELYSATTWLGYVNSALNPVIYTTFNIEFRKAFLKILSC

COc1ccnc(N2CCC3(CCCN(Cc4cn(C)c5ccccc45)C3=O)CC2)n1 [CW24]
Mean±SD % inhibition (Sigma 2; quadruplicate): 27.22 ±10.59%
% Inhibition 1 (Sigma 2; replicate 1): 42.39%
% Inhibition 2 (Sigma 2; replicate 2): 19.45%
% Inhibition 3 (Sigma 2; replicate 3): 26.56%
% Inhibition 4 (Sigma 2; replicate 4): 20.46%
Mean±SD % inhibition (GABAA; quadruplicate): 11.56 ± 11.5%
% Inhibition 1 (GABAA; replicate 1): 24.87%
% Inhibition 2 (GABAA; replicate 2): 0.04%
% Inhibition 3 (GABAA; replicate 3): 4%
% Inhibition 4 (GABAA; replicate 4): 17.31%
inhibition at 10 µM (5-HT2B; [1]): 21.6 ± 7.7%
inhibition at 10 µM (5-HT2B; [2]): 45.9%
inhibition at 10 µM (5-HT2B; [3]): 11.3%
inhibition at 10 µM (5-HT2B; [4]): 11.2%
inhibition at 10 µM (5-HT2B; [5]): 17.8%
inhibition at 10 µM (5-HT1A; [1]): -10.2 ± 8.4%
inhibition at 10 µM (5-HT1A; [2]): -4.55%
inhibition at 10 µM (5-HT1A; [3]): -4.08%
inhibition at 10 µM (5-HT1A; [4]): -22.1%
inhibition at 10 µM (5-HT1A; [5]): -9.84%
inhibition at 10 µM (Alpha1D; [1]): -13.7 ± 16.7%
inhibition at 10 µM (Alpha1D; [2]): 6.91%
inhibition at 10 µM (Alpha1D; [3]): -32.8%
inhibition at 10 µM (Alpha1D; [4]): -9.43%
inhibition at 10 µM (Alpha1D; [5]): -19.4%
inhibition at 10 µM (D5; [1]): 15.5 ± 27.3%
inhibition at 10 µM (D5; [2]): 4.57%
inhibition at 10 µM (D5; [3]): -5.32%
inhibition at 10 µM (D5; [4]): 7.05%
inhibition at 10 µM (D5; [5]): 55.8%
inhibition at 10 µM (DAT; [1]): 4.6 ± 8.8%
inhibition at 10 µM (DAT; [2]): -0.27%
inhibition at 10 µM (DAT; [3]): -4.72%
inhibition at 10 µM (DAT; [4]): 8.47%
inhibition at 10 µM (DAT; [5]): 14.9%
inhibition at 10 µM (D4; [1]): 67.2 ± 5.6%
inhibition at 10 µM (D4; [2]): 73.2%
inhibition at 10 µM (D4; [3]): 70%
inhibition at 10 µM (D4; [4]): 60.3%
inhibition at 10 µM (D4; [5]): 65.3%
inhibition at 10 µM (D3; [1]): -4.9 ± 5.5%
inhibition at 10 µM (D3; [2]): 3.09%
inhibition at 10 µM (D3; [3]): -9.41%
inhibition at 10 µM (D3; [4]): -6.79%
inhibition at 10 µM (D3; [5]): -6.5%
